Patent US20070027118A1 (priority 2005, published 2007)
pKi: −log10 of the molar value. Read-outs that look alike come from different tables or passages of the source.

Assays:
11β-hsd-1 enzyme [1] = target: T1, 11β-hsd-1 enzyme (Homo sapiens, UniProt P28845); assay: biochemical; details: for inhibition at 0.1 µM: read-out: % Inh @ 0.1 μM
Summary of the method: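 Human 11β-HSD-1 (5 nM) pre-incubated ≥30 min with inhibitor and 500 μM NADPH in triethanolamine buffer pH 8.0 with NaCl, n-dodecyl β-D-maltoside and β-ME; reaction started with G6P/G6PDH/MgCl2 regenerating system and 200 nM 3H-cortisone, run 60 min, stopped with DMSO. 3H-cortisol and substrate separated by radio-HPLC; percent inhibition from peak areas.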

11β-hsd-1 enzyme [2] = target: T1, 11β-hsd-1 enzyme; assay: biochemical
Protocol: The 11β-hsd-1 assay was performed in a 100 mM Triethanolamine buffer pH 8.0, containing 200 mM NaCl, 0.02% n-dodecyl β-D-maltoside, 5% glycerol, 5 mM β-mercaptoethanol. A typical reaction for the determination of Kiapp values was carried at R.T. in a Corning® u-bottom 96-well plate and is described as follows: 11β-hsd-1 enzyme (5 nM, final concentration) was pre-incubated in the presence of the inhibitor and NADPH (500 μM, final concentration) for at least 30 minutes in the assay buffer. When pre-incubation was completed, the reaction was initiated by adding the regenerating system (2 mM Glucose-6-Phosphate, 1U/mL Glucose-6-Phosphate dehydrogenase, and 6 mM MgCl2, all the concentration reported are final in the assay buffer), and 3H-cortisone (200 nM, final concentration). After 60 minutes, 60 μL of the assay mixture was transferred to a second 96-well plate and mixed with an equal volume of dimethylsulfoxide to stop the reaction. A 15 μL aliquot from the reaction mixture was loaded into a C-18 column (Polaris C18-A, 50×4.6 mm, 5 μ, 180 Angstrom from Varian) connected to an automated High-throughput Liquid Chromatography instrument developed by Cohesive Technologies Inc, of Franklin, Mass. USA, with a β-RAM model 3 Radio-HPLC detector from IN/US, of Tampa, Fla. USA. The substrate and product peaks were separated by using an isocratic mixture of 43:57 methanol to water (v/v) at a flow rate of 1.0 mL/min.
The initial reaction velocities were measured by stopping the reaction at 60 min and by measuring the area of product formation in the absence and the presence of various concentrations of inhibitors. The Kiapp values were determined using the equation for tight-binding inhibitor developed by Morrison, J. F. (Morrison J. F. Biochim BiophysActa. 1969; 185: 269-86).
The radiolabeled [1,2-3H]-cortisone is commercially available from American Radiolabeled Chemicals Inc of St. Louis, Mo. USA. NADPH, Glucose-6-Phosphate, and Glucose-6-Phosphate dehydrogenase were purchased from Sigma®.
(Morrison J. F. Biochim Biophys Acta. 1969; 185: 269-86).

T1 sequence (P28845 whole entry, species assumed): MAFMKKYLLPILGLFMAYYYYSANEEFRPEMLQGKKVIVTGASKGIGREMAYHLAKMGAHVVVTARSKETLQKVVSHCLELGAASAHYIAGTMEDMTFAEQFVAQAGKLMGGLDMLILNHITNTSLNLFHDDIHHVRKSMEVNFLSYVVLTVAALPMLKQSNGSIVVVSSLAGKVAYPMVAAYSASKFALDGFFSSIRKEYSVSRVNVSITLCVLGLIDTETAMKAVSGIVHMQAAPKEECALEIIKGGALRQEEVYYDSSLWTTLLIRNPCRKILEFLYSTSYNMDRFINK

## N#Cc1ccc(C2CCN(S(=O)(=O)Nc3cccc(N)n3)CC2)nc1 [Example 39]
11β-hsd-1 enzyme [1]
  inhibition at 0.1 µM: 91%
11β-hsd-1 enzyme [2]
  pKi: 7.80

## CCc1cccc(NS(=O)(=O)N2CCCN(c3ccc(C#N)cn3)CC2)n1 [Example 42]
11β-hsd-1 enzyme [1]
  inhibition at 0.1 µM: 89%
11β-hsd-1 enzyme [2]
  pKi: 7.77

## CCc1cccc(NS(=O)(=O)N2CCCN(c3ccc(C(F)(F)F)cn3)CC2)n1 [Example 43]
11β-hsd-1 enzyme [1]
  inhibition at 0.1 µM: 93%
11β-hsd-1 enzyme [2]
  pKi: 7.92

## Cc1cccc(NS(=O)(=O)N2CCCN(c3ccc(C#N)cn3)CC2)n1 [Example 44]
11β-hsd-1 enzyme [1]
  inhibition at 0.1 µM: 72%
11β-hsd-1 enzyme [2]
  pKi: 7.47

## N#Cc1ccc(N2CCCN(S(=O)(=O)Nc3ccc4ccccc4n3)CC2)nc1 [Example 45]
11β-hsd-1 enzyme [1]
  inhibition at 0.1 µM: 73%
11β-hsd-1 enzyme [2]
  pKi: 7.28

## Cc1ccc(C)n1-c1cccc(NS(=O)(=O)N2CCC(c3ccc(F)cc3)CC2)n1 [Example 57, N-[6-(2,5-dimethyl-1H-pyrrol-1-yl)pyridin-2-yl]-4-(4-fluorophenyl)piperidine-1-sulfonamide]
11β-hsd-1 enzyme [1]; Table 1, inhibitor 0.1 μM
  inhibition at 0.1 µM: 85%
11β-hsd-1 enzyme [2]
  pKi: 7.25

## CCc1cccc(NS(=O)(=O)N2CCC(c3ccc(F)cc3)CC2)n1 [Example 68]
11β-hsd-1 enzyme [1]
  inhibition at 0.1 µM: 96.6%
11β-hsd-1 enzyme [2]
  pKi: 8.27

## CCc1cccc(NS(=O)(=O)N2CCCC(c3ccnc(N4CCOCC4)n3)C2)n1 (stereo not drawn) [Example 71, N-(6-ethylpyridin-2-yl)-3-(2-morpholin-4-ylpyrimidin-4-yl)pipendine-1-sulfonamide]
11β-hsd-1 enzyme [1]; read-out: % Inh @ 0.1 mM
  inhibition: 92.7%
11β-hsd-1 enzyme [2]
  pKi: 7.64

## CCc1cccc(NS(=O)(=O)N2CCC(c3ccc(C(=O)NC4CCCC4)cc3)CC2)n1 [Example 74, N-cyclopentyl-4-(1-{[(6-ethylpyrin-2-yl)amino]sulfonyl}pipendin-4-yl)benzamide]
11β-hsd-1 enzyme [1]; read-out: % Inh @ 0.1 mM
  inhibition: 88.4%
11β-hsd-1 enzyme [2]
  pKi: 8.02

## CCc1cccc(NS(=O)(=O)N2CCC(CCc3ccccn3)CC2)n1 [Example 80, N-(6-ethylpyridin-2-yl)-4-(2-pyridin-2-ylethyl)piperidine-1-sulfonamide]
11β-hsd-1 enzyme [1]; read-out: % Inh @ 0.1 mM
  inhibition: 93.8%
11β-hsd-1 enzyme [2]
  pKi: 8.25

## CCc1cccc(NS(=O)(=O)N2CCC(c3ccnc(N(C)C)n3)CC2)n1 [Example 81, 4-[2-(dimethylamino)pyrimi-din-4-yl]-N-(6-ethylpyridin-2-yl)piperidine-1-sulfonamide]
11β-hsd-1 enzyme [1]; read-out: % Inh @ 0.1 mM
  inhibition: 86.8%
11β-hsd-1 enzyme [2]
  pKi: 6.64

## CCc1cccc(NS(=O)(=O)N2CCC(CCc3ccnc(NCC4CC4)n3)CC2)n1 [Example 82, 4-(2-{2-[(cyclopropylmethyl)-amino]pyrimidin-4-yl}ethyl)-N-(6-ethylpyridin-2-yl)piperidine-1-sulfonamide]
11β-hsd-1 enzyme [1]; read-out: % Inh @ 0.1 mM
  inhibition: 100%
11β-hsd-1 enzyme [2]
  pKi: 7.96

## Cc1cccc(NS(=O)(=O)N2CCOC(COc3cc(F)cc(F)c3)C2)n1 (stereo not drawn) [Example 83, 2-[(35-difluorophenoxy)meth-yl]-N-(6-methylpyridin-2-yl)morpholine-4-sulfonamide]
11β-hsd-1 enzyme [1]; read-out: % Inh @ 0.1 mM
  inhibition: 71.2%
11β-hsd-1 enzyme [2]
  pKi: 6.96

## Cc1cccc(NS(=O)(=O)N2CCCC(c3ccccc3)CC2)n1 (stereo not drawn) [Example 84, N-(6-methylpyridin-2-yl)-4-phenylazepane-1-sulfonamide]
11β-hsd-1 enzyme [1]; read-out: % Inh @ 0.1 mM
  inhibition: 100%
11β-hsd-1 enzyme [2]
  pKi: 8.09

## Cc1cccc(NS(=O)(=O)N2CCCC(COCC3CC3)CC2)n1 (stereo not drawn) [Example 86, 4-[(cyclopropylmethoxy)-methyl]-N-(6-methylpyridin-2-yl)azepane-1-sulfonamide]
11β-hsd-1 enzyme [1]; read-out: % Inh @ 0.1 mM
  inhibition: 87.6%
11β-hsd-1 enzyme [2]
  pKi: 7.01

## Cc1ccc(C2(C)CN(S(=O)(=O)Nc3ccc4ccccc4n3)CCO2)cc1 (stereo not drawn) [Example 87, 2-methyl-2-(4-methylphenyl)-N-quinolin-2-ylmorpholine-4-sulfonamide]
11β-hsd-1 enzyme [1]; read-out: % Inh @ 0.1 mM
  inhibition: 85.2%
11β-hsd-1 enzyme [2]
  pKi: 7.60

## CCc1cccc(NS(=O)(=O)N2CCCC(OCc3ccccc3)C2)n1 (stereo not drawn) [Example 88, 3-(benzyloxy)-N-(6-ethylpyridin-2-yl)piperidine-1-sulfonamide]
11β-hsd-1 enzyme [1]; read-out: % Inh @ 0.1 mM
  inhibition: 77.1%
11β-hsd-1 enzyme [2]
  pKi: 7.28

## CCCC1CCN(S(=O)(=O)Nc2cccc(CC)n2)CC1 [Example 89, N-(6-ethylpyridin-2-yl)-4-propylpiperidine-1-sulfonamide]
11β-hsd-1 enzyme [1]; read-out: % Inh @ 0.1 mM
  inhibition: 100%
11β-hsd-1 enzyme [2]
  pKi: 9.00

## CCc1cccc(NS(=O)(=O)N2CCCC(c3ccccc3)CC2)n1 (stereo not drawn) [Example 90, N-(6-ethylpyridin-2-yl)-4-phenylazepane-1-sulfonamide]
11β-hsd-1 enzyme [1]; read-out: % Inh @ 0.1 mM
  inhibition: 90.9%
11β-hsd-1 enzyme [2]
  pKi: 7.74

## CCc1cccc(NS(=O)(=O)N2CCC(OCc3ccccc3)CC2)n1 [Example 91, 4-(benzyloxy)-N-(6-ethylpyridin-2-yl)piperidine-1-sulfonamide]
11β-hsd-1 enzyme [1]; read-out: % Inh @ 0.1 mM
  inhibition: 75.9%
11β-hsd-1 enzyme [2]
  pKi: 7.35

## CCc1cccc(NS(=O)(=O)N2CCCC(COC)CC2)n1 (stereo not drawn) [Example 93, N-(6-ethylpyridin-2-yl)-4-(methoxymethyl)azepane-1-sulfonamide]
11β-hsd-1 enzyme [1]; read-out: % Inh @ 0.1 mM
  inhibition: 69.7%
11β-hsd-1 enzyme [2]
  pKi: 6.96

## CCc1cccc(NS(=O)(=O)N2CCCC(COCC3CC3)CC2)n1 (stereo not drawn) [Example 95, 4-[(cyclopropylmethoxy)-methyl]-N-(6-ethylpyridin-2-yl)azepane-1-sulfonamide]
11β-hsd-1 enzyme [1]; read-out: % Inh @ 0.1 mM
  inhibition: 86.2%
11β-hsd-1 enzyme [2]
  pKi: 7.09

## CCc1cccc(NS(=O)(=O)N2CCCC(c3ccnc(N4CCCC4)n3)C2)n1 (stereo not drawn) [Example 96, N-(6-ethylpyridin-2-yl)-3-(2-pyrrolidin-1-ylpyrimidin-4-yl)piperidine-1-sulfanamide]
11β-hsd-1 enzyme [1]; read-out: % Inh @ 0.1 mM
  inhibition: 71.6%
11β-hsd-1 enzyme [2]
  pKi: 7.21

## O=S(=O)(Nc1ccc2ccccc2n1)N1CCCC(c2ccccc2)CC1 (stereo not drawn) [Example 97, 4-phenyl-N-quinolin-2-ylazepane-1-sulfonamide]
11β-hsd-1 enzyme [1]; read-out: % Inh @ 0.1 mM
  inhibition: 100%
11β-hsd-1 enzyme [2]
  pKi: 8.20

## O=S(=O)(Nc1ccc2ccccc2n1)N1CCCC(COCC2CC2)CC1 (stereo not drawn) [Example 98, 4-[(cyclapropylmethoxy)meth-yl]-N-quinolin-2-ylazepane-1-sulfonamide]
11β-hsd-1 enzyme [1]; read-out: % Inh @ 0.1 mM
  inhibition: 92.4%
11β-hsd-1 enzyme [2]
  pKi: 7.55

## COCC1CCCN(S(=O)(=O)Nc2ccc3ccccc3n2)CC1 (stereo not drawn) [Example 99, 4-(methoxymethyl)-N-quinolin-2-ylazepane-1-sulfonamide]
11β-hsd-1 enzyme [1]; read-out: % Inh @ 0.1 mM
  inhibition: 77.6%
11β-hsd-1 enzyme [2]
  pKi: 7.20

## O=S(=O)(Nc1ccc2ccccc2n1)N1CCOC(COc2cc(F)cc(F)c2)C1 (stereo not drawn) [Example 100, 2-[(35-difluorophenoxy)meth-yl]-N-quinolin-2-ylmorpholine-4-sulfonamide]
11β-hsd-1 enzyme [1]; read-out: % Inh @ 0.1 mM
  inhibition: 90.6%
11β-hsd-1 enzyme [2]
  pKi: 7.23

## CCc1cccc(NS(=O)(=O)N2CCCC(F)(F)C2)n1 [Example 101, N-(6-ethylpyridin-2-yl)-33-difluoropiperidine-1-sulfonamide]
11β-hsd-1 enzyme [1]; read-out: % Inh @ 0.1 mM
  inhibition: 78.3%
11β-hsd-1 enzyme [2]
  pKi: 7.47

## CCc1cccc(NS(=O)(=O)N2CCC(Cc3cc(F)ccc3C)CC2)n1 [Example 102, N-(6-ethylpyridin-2-yl)-4-(5-fluoro-2-methylbenzyl)piperidine-1-sulfonamide]
11β-hsd-1 enzyme [1]; Table 2, inhibitor 0.1 mM as printed, read-out: % Inh @ 0.1 mM
  inhibition at 100 µM: 100%
11β-hsd-1 enzyme [2]
  pKi: 8.27

## CCCC1CCCCN1S(=O)(=O)Nc1cccc(CC)n1 (stereo not drawn) [Example 103, N-(6-ethylpyridin-2-yl)-2-propylpiperidine-1-sulfonamide]
11β-hsd-1 enzyme [1]; read-out: % Inh @ 0.1 mM
  inhibition: 82.2%
11β-hsd-1 enzyme [2]
  pKi: 7.62

## CCc1cccc(NS(=O)(=O)N2CCC(CCc3ccccc3)CC2)n1 [Example 104, N-(6-ethylpyridin-2-yl)-4-(2-phenylethyl)piperidine-1-sulfonamide]
11β-hsd-1 enzyme [1]; read-out: % Inh @ 0.1 mM
  inhibition: 100%
11β-hsd-1 enzyme [2]
  pKi: 8.16

## CCc1cccc(NS(=O)(=O)N2CCCCC2c2ccc(F)cc2)n1 (stereo not drawn) [Example 105, N-(6-ethylpyridin-2-yl)-2-(4-fluorophenyl)piperidine-1-sulfonamide]
11β-hsd-1 enzyme [1]; read-out: % Inh @ 0.1 mM
  inhibition: 90.1%
11β-hsd-1 enzyme [2]
  pKi: 8.09

## CCc1cccc(NS(=O)(=O)N2CCC(C(F)(F)F)CC2)n1 [Example 106, N-(6-ethylpyridin-2-yl)-4-(trifluoromethyl)piperidine-1-sulfonamide]
11β-hsd-1 enzyme [1]; read-out: % Inh @ 0.1 mM
  inhibition: 100%
11β-hsd-1 enzyme [2]
  pKi: 8.15
